Test results taken from patent publication US10106510B2, “Substituted isoxazoles for treating cancer” (EPIZYME, INC., priority 2014, dated 2018).

Key:
SMYD3 [1] = biological target: T1, SMYD3 (Homo sapiens (Human), UniProt Q9H7B4); experiment: SMYD3 cell assay (Trimethyl-MEKK2 In-Cell Western in 293T/17 cells); format: cell-based; conditions: 293T/17 cells transfected with MEKK2-flag and SMYD3, trimethyl-MEKK2 In-Cell Western, 24 hours, top concentration 40 μM; average of n = 1 to n = 50
Description: Trimethyl-MEKK2-In-Cell Western Assay
293T/17 adherent cells were purchased from ATCC (American Type Culture Collection), Manassas, Va., USA. MEM/Glutamax medium, Optimem Reduced Serum medium, penicillin-streptomycin, 0.05% trypsin and 1×D-PBS were purchased from Life Technologies, Grand Island, N.Y., USA. PBS-10× was purchased from Ambion, Life Technologies, Grand Island, N.Y., USA. PBS with Tween 20 (PBST (10×)) was purchased from KPL, Gaithersburg, Md., USA. Tet System FBS-approved FBS US Source was purchased from Clontech, Mountain View, Calif., USA. Odyssey blocking buffer, 800 CW goat anti-rabbit IgG (H+L) antibody, 680 CW Goat anti-mouse IgG (H+L) and Licor Odyssey infrared scanner were purchased from Licor Biosciences, Lincoln, Nebr., USA. Tri-methyl-Lysine [A260]-MEKK2 antibody, MEKK2 and SMYD3 plasmids were made at Epizyme. Anti-flag monoclonal mouse antibody was purchased from Sigma, St. Louis, Mo., USA. Methanol was purchased from VWR, Franklin, Mass., USA. 10%) Tween 20 was purchased from KPL, Inc., Gaithersburg, Md., USA. Fugene was purchased from Promega, Madison, Wis., USA. The Biotek ELx405 was purchased from BioTek, Winooski, Vt., USA. The multidrop combi was purchased from Thermo Scientific, Waltham, Mass., USA.
293T/17 adherent cells were maintained in growth medium (MEM/Glutamax medium supplemented with 10% v/v Tet System FBS and cultured at 37° C. under 5% CO2.
Cell Treatment, In Cell Western (ICW) for Detection of Trimethyl-Lysine-MEKK2 and MEKK2
293T/17 cells were seeded in assay medium at a concentration of 33,333 cells per cm^2 in 30 mL medium per T150 flask and incubated at 37° C. under 5% CO2. Plasmids were prepared for delivery to cells by first mixing 1350 μL Opti-MEM with Fugene (81 μL) in a sterile Eppendorf and incubated for five minutes at room temperature (RT). MEKK2-flag (13.6 ug/T150) MEKK2 p3XFlag-CMV-14 with C-3XFlag and SMYD3 (0.151 ug/T150) SMYD3 p3XFlag-CMV-14 without C-3XFlag plasmids were aliquotted to a 1.7 mL sterile microfuge tube. The gene ID for MEKK2 and SMYD3 is NM_006609.3 and Q9H7B4, respectively. Entire volume of Opti-MEM/Fugene mixture was then added to a microfuge tube containing DNA plasmid, mixed and then incubated××15 minutes at RT. The medium on the 293T/17 cells was refreshed, and the DNA/Fugene complex is added aseptically to each flask, rocked gently, and incubated at 37 C for 5 hours. Medium was then removed, and cells were washed once with PBS in the flask. Trypsin 0.05% (3 mL) was added and cells incubated for three minutes. Room temperature MEM+10% Tet system FBS was added and cells were mixed gently, and counted using the Vi-cell. Cells were seeded at 100,000 cells/mL in 50 μL MEM/10% Tet FBS/Pen/Strep to a 384 well black/clear poly-D-lysine coated plate containing test agent diluted in DMSO. The final top concentration of test compound was 40 μM. […] Plates were incubated ×30 minutes at RT in low-airflow area, followed by incubation at 37° C. under 5% CO2 for 24 hours. Medium was aspirated from all wells of assay plates prior to fixation and permeabilization with ice cold (−20° C.) methanol (90 μL/well) for ten minutes. Plates were rinsed with PBS three times on BioTek ELx405. PBS was removed with a final aspiration, and Odyssey blocking buffer (50 μL/well) was added to each well and incubated for one hour at RT. Primary antibody solution was prepared (anti-trimethyl-MEKK2 at 1:600 dilution plus mouse anti-flag antibody at 1:10,000 dilution in diluent (Odyssey Blocking buffer+0.1% Tween 20)) and 20 μL per well was dispensed using the Multidrop Combi. Assay plates were then sealed with foil, and incubated overnight at 4° C. Plates were washed five times with PBS-Tween (IX) on Biotek ELx405 and blotted on paper towel to remove excess reagent. […]

SMYD3 [2] = biological target: T1, SMYD3; experiment: SMYD3 biochemical assay (SMYD3 enzyme assay on MEKK2 protein substrate, scintillation proximity assay); conditions: 3H-SAM, SPA, IC50 values are an average of n = 1 to n = 50, read-out: SMYD3 Biochem IC50
Description: S-adenosylmethionine (SAM), S-adenosylhomocysteine (SAH), Tris, Tween20, dimethylsulfoxide (DMSO), bovine skin gelatin (BSG), and Tris(2-carboxyethyl)phosphine hydrochloride solution (TCEP) were purchased from Sigma-Aldrich at the highest level of purity possible. ^3H-SAM was purchase from American Radiolabeled Chemicals with a specific activity of 80 Ci/mmol. 384-well opaque white OptiPlates and SPA beads (Perkin Elmer, catalog # RPNQ0013) were purchased from PerkinElmer.
N-terminally GST-tagged MEKK2 (MAP3K2) protein corresponding to reference sequence AAF63496.3 was purchased from Life Technologies (catalog # PV4010). […] Protein identity was confirmed by MS/MS analysis after proteolytic digestion. The protein sequence used was:
Full-length human SMYD3 isoform 1 (BAB86333) was inserted into a modified pET21b plasmid containing a His6 tag and TEV and SUMO cleavage sites. Because two common variants of SMYD3 exist in the population, site directed mutagenesis was subsequently performed to change amino acid 13 from an asparagine to a lysine, resulting in plasmid pEPZ533.
E. coli (BL21 codonplus RIL strain, Stratagene) were transformed with plasmid pEPZ553 by mixing competent cells and plasmid DNA and incubating on ice for 30minutes followed by heat shock at 42° C. for 1 minute and cooling on ice for 2 minutes. Transformed cells were grown and selected on LB agar with 100 μg/mL ampicillin and 17 μg/mL chloramphenicol at 37° C. overnight. A single clone was used to inoculate 200 mL of LB medium with 100 μg/mL ampicillin and 17 μg/mL chloramphenicol and incubated at 37° C. on an orbital shaker at 180 rpm. Once in log growth, the culture was diluted 1:100 into 2 L of LB medium and grown until OD600 was about 0.3 after which the culture was incubated at 15° C. and 160 rpm. Once OD600 reached about 0.4, IPTG was added to a final concentration of 0.1 mM and the cells were grown overnight at 15° C. and 160 rpm. Cells were harvested by centrifugation at 8000 rpm, for 4 minutes at 4° C. and stored at −80° C. for purification.
The column was washed with Buffer B (Buffer A plus 20 mM imidazole) and His-tagged SMYD3 was eluted with Buffer C (Buffer A plus 300 mM imidazole). The His tag, TEV and SUMO cleavage sites were removed generating native SMYD3 by addition of ULP1 protein at a ratio of 1:200 (ULP1:SMYD3). Imidazole was removed by dialysis overnight in Buffer A. The dialyzed solution was applied to a second Nickel column and the native SMYD3 protein was collected from the column flow-through. The flow-through was dialyzed in Buffer D (25 mM Tris, 5% glycerol, 5 mM β-mercaptoethanol, 50 mM NaCl, pH7.8) and ULP1 was removed using a Q sepharose fast flow column.
General Procedure for SMYD3 Enzyme Assays on MEKK2 Protein Substrate
The assays were all performed in a buffer consisting of 25 mM Tris-Cl pH 8.0, 1 mM TCEP, 0.005% BSG, and 0.005% Tween 20, prepared on the day of use. Compounds in 100% DMSO (1 ul) were spotted into a 384-well white opaque OptiPlate using a Bravo automated liquid handling platform outfitted with a 384-channel head (Agilent Technologies). DMSO (1 ul) was added to Columns 11, 12, 23, 24, rows A-H for the maximum signal control and 1 ul of SAH, a known product and inhibitor of SMYD3, was added to columns 11, 12, 23, 24, rows I-P for the minimum signal control. A cocktail (40 ul) containing the SMYD3 enzyme was added by Multidrop Combi (Thermo-Fisher). The compounds were allowed to incubate with SMYD3 for 30 min at room temperature, then a cocktail (10 ul) containing SAM and MEKK2 was added to initiate the reaction (final volume=51 ul).

T1 sequence (Q9H7B4 whole entry): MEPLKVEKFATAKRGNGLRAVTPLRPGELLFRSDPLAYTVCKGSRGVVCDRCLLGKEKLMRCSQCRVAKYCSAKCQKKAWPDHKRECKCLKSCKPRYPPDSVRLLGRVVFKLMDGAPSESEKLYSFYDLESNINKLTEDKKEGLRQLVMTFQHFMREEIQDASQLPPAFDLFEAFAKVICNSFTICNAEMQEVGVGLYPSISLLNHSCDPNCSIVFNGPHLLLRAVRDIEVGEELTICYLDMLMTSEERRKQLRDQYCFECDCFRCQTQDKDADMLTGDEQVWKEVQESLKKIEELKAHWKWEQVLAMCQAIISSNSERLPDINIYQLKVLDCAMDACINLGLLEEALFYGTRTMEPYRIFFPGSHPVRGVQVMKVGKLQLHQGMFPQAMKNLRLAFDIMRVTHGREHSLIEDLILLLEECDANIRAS

IC50 (SMYD3 [1]) [nM] | IC50 (SMYD3 [2]) [nM] | SMILES
255 | 28.6 | C[C@@H](N)CC(=O)N[C@H]1CC[C@H](NC(=O)c2cc(C3CC3)on2)[C@H](Cc2ccccc2)C1 (mixture of isomers) [Cpd. No. 39, Mixture of N-((1S,2R,4S)-4-((R)-3-aminobutanamido)-2-benzylcyclohexyl)-5-cyclopropylisoxazole-3-carboxamide and N-((1R,2S,4R)-4-((R)-3-aminobutanamido)-2-benzylcyclohexyl)-5-cyclopropylisoxazole-3-carboxamide; (1S,2R,4S) isomer is depicted.]
5150 | 562 | N[C@H]1CC[C@H](C(=O)N[C@H]2CC[C@H](NC(=O)c3cc(C4CC4)on3)CC2)C1 [compound 32, N-((1S,4r)-4-((1S,3S)-3-aminocyclopentane-1-carboxamido)cyclohexyl)-5-cyclopropylisoxazole-3-carboxamide]
> 40000 | 428 | NCCCN(C(=O)CCN)[C@H]1CC[C@H](NC(=O)c2cc(C3CC3)on2)CC1 [compound 33, N-((1r,4r)-4-(3-amino-N-(3-aminopropyl)propanamido)cyclohexyl)-5-cyclopropylisoxazole-3-carboxamide]

More lines, now with the values behind:

SMILES | IC50 (SMYD3 [1]) [nM] | IC50 (SMYD3 [2]) [nM]
CCc1cc(C(=O)N[C@H]2CC[C@H](NC(=O)C[C@@H](C)N)C[C@H]2CC)no1 (mixture of isomers) [Cpd. No. 6, Mixture of N-((1S,2R,4S)-4-((R)-3-aminobutanamido)-2-ethylcyclohexyl)-5-ethylisoxazole-3-carboxamide and N-((1R,2S,4R)-4-((R)-3-aminobutanamido)-2-ethylcyclohexyl)-5-ethyl-isoxazole-3-carboxamide; (1S,2R,4S) isomer is depicted] | 964 | 97.3
C[C@@H](N)CC(=O)N[C@H]1CC[C@H](NC(=O)c2cc(C3CC3)on2)CC1 [compound 5, N-((1R,4r)-4-((R)-3-aminobutanamido)cyclohexyl)-5-cyclopropylisoxazole-3-carboxamide] | 10100 | 400
O=C(CCN1CCCC1)N[C@H]1CC[C@H](NC(=O)c2cc(C3CC3)on2)CC1 [compound 11, 5-cyclopropyl-N-((1r,4r)-4-(3-(pyrrolidin-1-yl)propanamido)cyclohexyl)isoxazole-3-carboxamide] | 1970 | 188
